Laboratory results published in US5610151A, “Monomeric bile acid derivatives, processes for their preparation and the use of these compounds as medicaments” (Hoechst Aktiengesellschaft, priority 1993, dated 1997).

Target: T1, Na+-dependent bile acid transportation system (Oryctolagus cuniculus, UniProt Q28727)
T1 construct: Brush border membrane vesicles were prepared from the intestinal cells of the small intestine; from tissue; host or cells: terminal 7/10 of the small intestine (ileum) of male New Zealand rabbits, mucosal brush border membrane vesicles
T1 sequence (Q28727 1-347): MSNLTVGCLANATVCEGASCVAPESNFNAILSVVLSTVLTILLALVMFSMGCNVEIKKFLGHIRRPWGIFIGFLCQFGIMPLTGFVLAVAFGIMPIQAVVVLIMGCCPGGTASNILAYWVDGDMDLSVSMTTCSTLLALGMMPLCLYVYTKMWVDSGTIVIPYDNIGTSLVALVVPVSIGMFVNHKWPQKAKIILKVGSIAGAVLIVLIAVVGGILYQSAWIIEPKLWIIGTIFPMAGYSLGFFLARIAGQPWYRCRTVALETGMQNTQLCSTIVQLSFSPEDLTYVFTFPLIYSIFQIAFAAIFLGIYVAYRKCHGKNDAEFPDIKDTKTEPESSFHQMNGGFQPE
Test: Inhibition of [3H]-taurocholate uptake in brush border membrane vesicles from the ileum of rabbits
Type: biochemical
Details: Na+-dependent [3H]-taurocholate uptake (difference Na-T-P minus K-T-P), 50 μM taurocholate, rabbit ileum brush border membrane vesicles; drawing 7
Experimental: The compounds according to the invention were tested biologically by determination of the inhibition of [^3 H]taurocholate uptake in the brush border membrane vesicles from the ileum of rabbits. The inhibition test was carried out as follows:
1. Preparation of brush border membrane vesicles from the ileum of rabbits
Brush border membrane vesicles were prepared from the intestinal cells of the small intestine by the so-called Mg^2+ precipitation method. Male New Zealand rabbits (2 to 2.5 kg body weight) were sacrificed by intravenous injection of 0.5 ml of an aqueous solution of 2.5 mg of tetracaine HCl, 100 T 61^R and 25 mg of mebezonium iodide. The small intestine was removed and rinsed with ice-cold physiological saline solution. The terminal 7/10 of the small intestine (measured in the oral-rectal direction, i.e. the terminal ileum, which contains the active Na^+ -dependent bile acid transportation system) was used for preparation of the brush border membrane vesicle. The intestines were frozen in plastic bags under nitrogen at -80° C. For preparation of the membrane vesicles, the frozen intestines were thawed at 30° C. in a water bath. The mucosa was scraped off and suspended in 60 ml of ice-cold 12 mM Tris/HCl buffer (pH 7.1)/300 mM mannitol, 5 mM EGTA/10 mg/1 of phenylmethylsulfonyl fluoride/1 mg/1 of trypsin inhibitor from soybeans (32 U/mg)/0.5 mg/1 of trypsin inhibitor from bovine lung (193 U/mg)/5 mg/1 of bacitracin. After dilution to 300 ml with ice-cold distilled water, the mixture was homogenized with an Ultraturrax (18-rod, IKA Werk Staufen, FRG) for 3 minutes at 75% of the maximum output, while cooling with ice. After addition of 3 ml of 1M MgCl2 solution (final concentration 10 mM), the mixture was left to stand at 0° C. for exactly 1 minute. The cell membranes aggregate by addition of Mg^2+ and precipitate, with the exception of the brush border membranes. After centrifugation at 3000× g (5000 rpm, SS-34 rotor) for 15 minutes, the precipitate was discarded, and the supernatant, which contained the brush border membranes, was centrifuged at […] (15000 rpm, SS-34 rotor) for 30 minutes. The supernatant was discarded and the precipitate was rehomogenized in 60 ml of 12 mM Tris/HCl buffer (pH 7.1)/60 mM mannitol, 5 mM EGTA using a Potter Elvejhem homogenizer (Braun, Melsungen, 900 rpm, 10 strokes). After addition of 0.1 ml of 1 M MgCl2 solution and an incubation time of 15 minutes at 0° C., the mixture was centrifuged again at 3000× g for 15 minutes. The supernatant was then centrifuged again at 46000× g (15000 rpm, SS-34 rotor) for 30 minutes. The precipitate was taken up in 30 ml of 10 mM Tris/Hepes buffer (pH 7.4)/300 mM mannitol and resuspended homogeneously by 20 strokes in a Potter Elvejhem homogenizer at 1000 rpm. After centrifugation at 48000× g (20000 rpm, SS-34 rotor) for 30 minutes, the precipitate was taken up in 0.5 to 2 ml of Tris/Hepes buffer (pH 7.4)/280 mM mannitol (final concentration 20 mg/ml) and resuspended with the aid of a tuberculin syringe with a 27 gauge needle. The vesicles were either used immediately for transportation studies after preparation, or stored at -196° C. in portions of 4 mg in liquid nitrogen.
2. Inhibition of Na^+ -dependent [^3 H]-taurocholate uptake in the brush border membrane vesicles of the ileum
The uptake of substrates into the brush border membrane vesicles described above was determined by means of the so-called membrane filtration technique. 10 μl of the vesicle suspension (100 μg of protein) were pipetted as drops onto the wall of a polystyrene incubation tube (11×70 mm) which contained the incubation medium with the corresponding ligands (90 μl). […]

With `C[C@H](CCC(=O)O)[C@H]1CC[C@H]2[C@@H]3[C@H](O)C[C@@H]4C[C@@H](OCCCCCCNC(=O)[C@H](O)[C@@H](O)[C@H](O)[C@H](O)CO)CC[C@]4(C)[C@H]3C[C@H](O)[C@]12C` [Example 43] the “quotient of the IC50Na value of taurochenodesoxycholate (TCDC) standard and the particular substance” value (shortened to “quotient”) was 0.73.

`C[C@H](CCC(=O)O)[C@H]1CC[C@H]2[C@@H]3[C@H](O)C[C@@H]4C[C@@H](OCCCCCCOP(=O)(Oc5ccccc5)Oc5ccccc5)CC[C@]4(C)[C@H]3C[C@H](O)[C@]12C` [Example 18] was tested, and the “quotient” value was 0.42.

For `C[C@H](CCC(=O)O)[C@H]1CC[C@H]2[C@@H]3[C@H](O)C[C@@H]4C[C@H](CCNC(=O)c5cccc6ccccc56)CC[C@]4(C)[C@H]3C[C@H](O)[C@]12C` [Example 33], the “quotient” value was 0.35.

For `C[C@H](CCC(=O)O)[C@H]1CC[C@H]2[C@@H]3[C@H](O)C[C@@H]4C[C@@H](OCCCCCCNC(N)=O)CC[C@]4(C)[C@H]3C[C@H](O)[C@]12C` [Example 21], the “quotient” value was 0.33.

In the case of `Cc1ccc(S(=O)(=O)N(C)CCCCCCO[C@H]2CC[C@@]3(C)[C@@H](C2)C[C@@H](O)[C@@H]2[C@@H]3C[C@H](O)[C@]3(C)[C@@H]([C@H](C)CCC(=O)O)CC[C@@H]23)cc1` [Example 36], the “quotient” value was 0.20.

With `COc1ccc(Cl)cc1C(=O)NCCc1ccc(S(=O)(=O)NC(=O)NCCCCCCO[C@H]2CC[C@@]3(C)[C@@H](C2)C[C@@H](O)[C@@H]2[C@@H]3C[C@H](O)[C@]3(C)[C@@H]([C@H](C)CCC(=O)O)CC[C@@H]23)cc1` [Example 40] the “quotient” value was 0.50.

For `C[C@H](CCC(=O)O)[C@H]1CC[C@H]2[C@@H]3[C@H](O)C[C@@H]4C[C@@H](OCCCCCCNC(=O)c5cccc6ccccc56)CC[C@]4(C)[C@H]3C[C@H](O)[C@]12C` [Example 38], the “quotient” value was 0.41.

With `C[C@H](CCC(=O)O)[C@H]1CC[C@H]2[C@@H]3[C@H](O)C[C@@H]4C[C@@H](OCCCCCCCCCO)CC[C@]4(C)[C@H]3C[C@H](O)[C@]12C` [Example 4] the “quotient” value was 0.69.

For `Cc1ccc(S(=O)(=O)NCCCCCCO[C@H]2CC[C@@]3(C)[C@@H](C2)C[C@@H](O)[C@@H]2[C@@H]3C[C@H](O)[C@]3(C)[C@@H]([C@H](C)CCC(=O)O)CC[C@@H]23)cc1` [Example 35], the “quotient” value was 1.02.

For `C[C@H](CCC(=O)O)[C@H]1CC[C@H]2[C@@H]3[C@H](O)C[C@@H]4C[C@@H](OCCCCCCCCO)CC[C@]4(C)[C@H]3C[C@H](O)[C@]12C` [Example 3], the “quotient” value was 0.35.
